Results as given in patent publication US11084800B2 (Achillion Pharmaceuticals, Inc., priority 2017, dated 2021).

These compounds were tested against Human Factor D (Homo sapiens (Human), UniProt P00746) (assay: Human Factor D Assay). Conditions: Factor D inhibition, assay of Example 10; read-out: IC5 (Stars).
Format: biochemical
In short: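 Serum-purified Factor D (80 nM final) preincubated 5 min at room temperature with compound in 50 mM Tris, 1 M NaCl, pH 7.5. Z-L-Lys-SBz and DTNB added at 100 μM each; A405 followed every 30 s for 30 min. IC50 from nonlinear regression of rates versus concentration.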

Chain of Human Factor D (P00746 26-253): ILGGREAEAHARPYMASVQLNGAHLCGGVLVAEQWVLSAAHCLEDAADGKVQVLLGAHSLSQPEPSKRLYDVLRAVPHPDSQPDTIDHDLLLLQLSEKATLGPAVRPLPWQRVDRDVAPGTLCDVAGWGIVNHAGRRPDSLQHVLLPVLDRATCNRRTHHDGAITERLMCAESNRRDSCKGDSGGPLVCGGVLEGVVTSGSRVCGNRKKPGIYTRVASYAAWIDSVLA

Question: For `CC(=O)c1nn(CC(=O)N2[C@H](C(=O)Nc3nc(Br)ccc3C)C[C@@]3(Cc4ncc(C(C)C)s4)C[C@@H]23)c2ccc(-c3cnc(C)nc3)cc12` [Compound 349, (1R,3S,5R)-2-(2-(3-acetyl-5-(2-methylpyrimidin-5-yl)-1H-indazol-1-yl)acetyl)-N-(6-bromo-3-methylpyridin-2-yl)-5-((5-isopropylthiazol-2-yl)methyl)-2-azabicyclo[3.1.0]hexane-3-carboxamide], which IC50 is on record?
Answer: < 1000 nM

Question: How did the IC50 turn out when `CC(=O)c1nn(CC(=O)N2[C@H](C(=O)Nc3nc(Br)ccc3C)C[C@@]3(CN4CC(C)(C)C4)C[C@@H]23)c2c(C)cc(-c3cnc(C)nc3)cc12` [Compound 350] was run?
Answer: < 1000 nM

Question: With `CC(=O)c1nn(CC(=O)N2[C@H](C(=O)Nc3nc(Br)ccc3C)C[C@@]3(CN4CCCC4)C[C@@H]23)c2c(CF)cc(-c3cnc(C)nc3)cc12` [Compound 351, (1R,3S,5R)-2-(2-(3-acetyl-7-(fluoromethyl)-5-(2-methylpyrimidin-5-yl)-1H-indazol-1-yl)acetyl)-N-(6-bromo-3-methylpyridin-2-yl)-5-(pyrrolidin-1-ylmethyl)-2-azabicyclo[3.1.0]hexane-3-carboxamide] as the compound, how does the IC50 read?
Answer: < 1000 nM

Question: With `CC(=O)c1nn(CC(=O)N2[C@H](C(=O)Nc3nc(Br)ccc3C)C[C@@]3(CN4CCC4)C[C@@H]23)c2c(CF)cc(-c3cnc(C)nc3)cc12` [Compound 353, (1R,3S,5R)-2-(2-(3-acetyl-7-(fluoromethyl)-5-(2-methylpyrimidin-5-yl)-1H-indazol-1-yl)acetyl)-5-(azetidin-1-ylmethyl)-N-(6-bromo-3-methylpyridin-2-yl)-2-azabicyclo[3.1.0]hexane-3-carboxamide] as the compound, how does the IC50 read?
Answer: < 1000 nM

Question: For `CC(=O)c1nn(CC(=O)N2[C@H](C(=O)Nc3nc(Br)ccc3C)C[C@@]3(CN4CC5(CCC5)C4)C[C@@H]23)c2c(CF)cc(-c3cnc(C)nc3)cc12` [Compound 354, (1R,3S,5R)-5-(2-azaspiro[3.3]heptan-2-ylmethyl)-2-(2-(3-acetyl-7-(fluoromethyl)-5-(2-methylpyrimidin-5-yl)-1H-indazol-1-yl)acetyl)-N-(6-bromo-3-methylpyridin-2-yl)-2-azabicyclo[3.1.0]hexane-3-carboxamide], which IC50 is on record?
Answer: < 1000 nM

Question: `CC(=O)c1nn(CC(=O)N2[C@H](C(=O)Nc3nc(Br)ccc3C)C[C@@]3(CN4CC(C)(C)C4)C[C@@H]23)c2c(CF)cc(-c3cnc(C)nc3)cc12` [Compound 355, (1R,3S,5R)-2-(2-(3-acetyl-7-(fluoromethyl)-5-(2-methylpyrimidin-5-yl)-1H-indazol-1 yl)acetyl)-N-(6-bromo-3-methylpyridin-2-yl)-5-((3,3-dimethylazetidin-1-yl)methyl)-2-azabicyclo[3.1.0]hexane-3-carboxamide] was tested. Which IC50 did it give?
Answer: < 1000 nM

Question: With `CC(=O)c1nn(CC(=O)N2[C@H](C(=O)Nc3nc(Br)ccc3CN3CCn4c(nnc4C(F)(F)F)C3)C[C@@]3(C)C[C@@H]23)c2ccc(-c3cnc(C)nc3)cc12` [Compound 357, (1R,3S,5R)-2-(2-(3-acetyl-5-(2-methylpyrimidin-5-yl)-1H-indazol-1-yl)acetyl)-N-(6-bromo-3-((3-(trifluoromethyl)-5,6-dihydro-[1,2,4]triazolo[4,3-a]pyrazin-7(8H)-yl)methyl)pyridin-2-yl)-5-methyl-2-azabicyclo[3.1.0]hexane-3-carboxamide] as the compound, how does the IC50 read?
Answer: < 1000 nM

Question: With `CC(=O)c1nn(CC(=O)N2[C@H](C(=O)Nc3nc(Br)ccc3C)C[C@@]3(Cc4nnco4)C[C@@H]23)c2c(C)cc(-c3cnc(C)nc3)cc12` [Compound 359, (1R,3S,5R)-5-((1,3,4-Oxadiazol-2-yl)methyl)-2-(2-(3-acetyl-7-methyl-5-(2-methylpyrimidin-5-yl)-1H-indazol-1-yl)acetyl)-N-(6-bromo-3-methylpyridin-2-yl)-2-azabicyclo[3.1.0]hexane-3-carboxamide] as the compound, how does the IC50 read?
Answer: < 1000 nM

Question: With `CC(=O)c1nn(CC(=O)N2[C@H](C(=O)Nc3nc(Br)ccc3C)C[C@@]3(Cc4nnc(C)o4)C[C@@H]23)c2c(C)cc(-c3cnc(C)nc3)cc12` [Compound 360, (1R,3S,5R)-2-(2-(3-acetyl-7-methyl-5-(2-methylpyrimidin-5-yl)-1H-indazol-1-yl)acetyl)-N-(6-bromo-3-methylpyridin-2-yl)-5-((5-methyl-1,3,4-oxadiazol-2-yl)methyl)-2-azabicyclo[3.1.0]hexane-3-carboxamide] as the compound, how does the IC50 read?
Answer: < 1000 nM

Question: With `Cc1ncc(-c2cc3c(C(N)=O)nn(CC(=O)N4[C@H](C(=O)Nc5nc(Br)ccc5C)C[C@@]5(C)C[C@@H]45)c3cn2)cn1` [Compound 361, 1-(2-((1R,3S,5R)-3-((6-bromo-3-methylpyridin-2-yl)carbamoyl)-5-methyl-2-azabicyclo[3.1.0]hexan-2-yl)-2-oxoethyl)-5-(2-methylpyrimidin-5-yl)-1H-pyrazolo[3,4-c]pyridine-3-carboxamide] as the compound, how does the IC50 read?
Answer: < 1000 nM

Question: How did the IC50 turn out when `CC(=O)c1nn(CC(=O)N2[C@H](C(=O)Nc3nc(Br)ccc3-c3nnc(C(C)C)o3)C[C@@]3(C)C[C@@H]23)c2ccc(-c3cnc(C)nc3)cc12` [Compound 362, (1R,3S,5R)-2-(2-(3-acetyl-5-(2-methylpyrimidin-5-yl)-1H-indazol-1-yl)acetyl)-N-(6-bromo-3-(5-isopropyl-1,3,4-oxadiazol-2-yl)pyridin-2-yl)-5-methyl-2-azabicyclo[3.1.0]hexane-3-carboxamide] was run?
Answer: 1000 to 10000 nM

Question: How did the IC50 turn out when `COc1ccc(Br)nc1NC(=O)[C@@H]1C[C@@]2(C)C[C@H]2N1C(=O)Cn1nc(C(C)=O)c2cc(-c3cnc(C)nc3)ccc21` [Compound 363, (1R,3S,5R)-2-(2-(3-acetyl-5-(2-methylpyrimidin-5-yl)-1H-indazol-1-yl)acetyl)-N-(6-bromo-3-methoxypyridin-2-yl)-5-methyl-2-azabicyclo[3.1.0]hexane-3-carboxamide] was run?
Answer: < 1000 nM

Question: Which IC50 does the source give for `CC(=O)c1nn(CC(=O)N2[C@H](C(=O)Nc3nc(Br)ccc3CN3CC(F)C3)C[C@@]3(C)C[C@@H]23)c2ccc(-c3cnc(C)nc3)cc12` [Compound 364, (1R,3S,5R)-2-(2-(3-acetyl-5-(2-methylpyrimidin-5-yl)-1H-indazol-1-yl)acetyl)-N-(6-bromo-3-((3-fluoroazetidin-1-yl)methyl)pyridin-2-yl)-5-methyl-2-azabicyclo[3.1.0]hexane-3-carboxamide] here?
Answer: < 1000 nM

Question: With `CC(=O)c1nn(CC(=O)N2[C@H](C(=O)Nc3nc(Br)ccc3CC#N)C[C@@]3(C)C[C@@H]23)c2c(C)cc(-c3cnc(C)nc3)cc12` [Compound 365, (1R,3S,5R)-2-(2-(3-acetyl-7-methyl-5-(2-methylpyrimidin-5-yl)-1H-indazol-1-yl)acetyl)-N-(6-bromo-3-(cyanomethyl)pyridin-2-yl)-5-methyl-2-azabicyclo[3.1.0]hexane-3-carboxamide] as the compound, how does the IC50 read?
Answer: < 1000 nM

Same assay, conditions: Table 8; Factor D 80 nM, substrate Z-L-Lys-SBz; read-out: IC50

Question: How did the IC50 turn out when `COC(=O)CCCCCCCCCCCCCCCCC(=O)N[C@@H](CCC(=O)NCCOCCOCC(=O)NCCOCCOCC(=O)NC[C@@]12C[C@@H](C(=O)Nc3nc(Br)ccc3C)N(C(=O)Cn3nc(C(C)=O)c4cc(-c5cnc(C)nc5)ccc43)[C@@H]1C2)C(=O)OC` [Compound 358, (S)-methyl 1-((1R,3S,5R)-2-(2-(3-acetyl-5-(2-methylpyrimidin-5-yl)-1H-indazol-1-yl)acetyl)-3-((6-bromo-3-methylpyridin-2-yl)carbamoyl)-2-azabicyclo[3.1.0]hexan-5-yl)-24-(methoxycarbonyl)-3,12,21,26-tetraoxo-5,8,14,17-tetraoxa-2,11,20,25-tetraazatritetracontan-43-oate] was run?
Answer: > 10000 nM
